# Data from patent EP4653444A1, “FUSED TRICYCLIC COMPOUND AS KINASE INHIBITOR” (Hangzhou Innogate Pharma Co., Ltd., priority 2023, dated 2024).
# Like-named read-outs stand apart in the source and are kept apart here.
# Key:
# [1] = target: T1, ULK1 kinase (Homo sapiens, UniProt O75385); test: ULK kinase activity inhibition assay (ADP-Glo); type: biochemical
# T1 sequence (O75385 1-1050): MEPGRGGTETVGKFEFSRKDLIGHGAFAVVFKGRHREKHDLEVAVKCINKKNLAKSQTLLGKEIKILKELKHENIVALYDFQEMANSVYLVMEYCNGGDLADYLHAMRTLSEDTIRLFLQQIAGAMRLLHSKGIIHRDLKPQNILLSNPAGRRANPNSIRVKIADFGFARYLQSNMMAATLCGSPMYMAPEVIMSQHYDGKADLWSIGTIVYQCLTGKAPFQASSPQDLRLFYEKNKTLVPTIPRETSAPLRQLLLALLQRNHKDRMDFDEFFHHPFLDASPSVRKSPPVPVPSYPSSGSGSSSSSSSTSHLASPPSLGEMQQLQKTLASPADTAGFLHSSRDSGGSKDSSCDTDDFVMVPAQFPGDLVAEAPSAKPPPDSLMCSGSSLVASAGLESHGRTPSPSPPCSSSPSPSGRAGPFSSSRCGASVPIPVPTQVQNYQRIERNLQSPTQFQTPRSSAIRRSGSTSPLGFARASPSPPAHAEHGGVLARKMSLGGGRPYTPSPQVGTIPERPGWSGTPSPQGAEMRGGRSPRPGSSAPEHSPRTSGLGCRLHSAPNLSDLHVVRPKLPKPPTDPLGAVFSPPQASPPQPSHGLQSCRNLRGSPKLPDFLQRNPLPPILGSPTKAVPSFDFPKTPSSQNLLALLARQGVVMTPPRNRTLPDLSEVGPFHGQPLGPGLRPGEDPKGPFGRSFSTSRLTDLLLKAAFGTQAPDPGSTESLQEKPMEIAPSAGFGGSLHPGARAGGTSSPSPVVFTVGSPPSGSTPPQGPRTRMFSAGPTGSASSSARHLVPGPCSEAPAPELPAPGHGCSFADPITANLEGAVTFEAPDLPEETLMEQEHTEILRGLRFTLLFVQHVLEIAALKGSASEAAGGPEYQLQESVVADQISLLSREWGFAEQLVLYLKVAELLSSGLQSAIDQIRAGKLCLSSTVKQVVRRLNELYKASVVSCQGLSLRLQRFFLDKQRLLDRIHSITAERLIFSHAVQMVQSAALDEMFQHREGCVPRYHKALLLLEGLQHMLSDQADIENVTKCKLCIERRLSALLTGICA
# Procedure: (§1) The ADP-Glo method was used to evaluate the inhibitory activity of the compounds against ULK1 and ULK2 kinases. Prepare 1× kinase reaction buffer (final working concentrations: HEPES 50 mM, MgCl2 10 mM, Brij35 0.01%, EGTA 1 mM, DTT 2 mM). Prepare 2× kinase and […] substrate solutions: ULK1 kinase at 0.5 nM; substrate mix containing ATP at 100 µM and MBP at 0.1 mg/mL. ULK2 kinase at 0.15 nM; substrate mix containing ATP at 6 µM and MBP at 0.1 mg/mL. Compounds were serially diluted in DMSO and shaken on a shaker for 20 minutes. Prepare 2× kinase using 1× kinase reaction buffer. Transfer 20 nL of compound into a 384-well plate. Add 2 µL of kinase to each well of the reaction plate. Seal the plate with sealing film, centrifuge at 1000 rpm for 60 seconds, and incubate at 25°C for 10 minutes. Prepare 2× ATP & MBP mixture using 1× kinase reaction buffer and add 2 µL to each well. Seal the plate, centrifuge at 1000 rpm for 60 seconds, and incubate at 25°C for 60 minutes. Add 4 µL ADP-Glo reagent to the 384-well plate, centrifuge at 1000 rpm for 1 minute, and incubate at 25°C for 40 minutes. Then, add 8 µL Detection Reagent, centrifuge at 1000 rpm for 1 minute, and incubate at 25°C for 40 minutes. Read the RLU (Relative Luminescence Unit) signal using a BMG plate reader to indicate kinase activity. Inhibition rate was calculated as: % Inhibition = 100% - [(Compound - Positive Control)/(Negative Control - Positive Control)] × 100%. IC50 values (half-maximal inhibitory concentration) were calculated by nonlinear regression using GraphPad Prism 7.0. Y = Bottom + (Top - Bottom)/(1 + 10^((LogIC50 - X) × Hill Slope)), where X is the log of compound concentration and Y is the % inhibition.
# [2] = target: T2, ULK2 kinase (Homo sapiens, UniProt Q8IYT8); test: ULK kinase activity inhibition assay (ADP-Glo); type: biochemical
# T2 sequence (Q8IYT8 1-1036): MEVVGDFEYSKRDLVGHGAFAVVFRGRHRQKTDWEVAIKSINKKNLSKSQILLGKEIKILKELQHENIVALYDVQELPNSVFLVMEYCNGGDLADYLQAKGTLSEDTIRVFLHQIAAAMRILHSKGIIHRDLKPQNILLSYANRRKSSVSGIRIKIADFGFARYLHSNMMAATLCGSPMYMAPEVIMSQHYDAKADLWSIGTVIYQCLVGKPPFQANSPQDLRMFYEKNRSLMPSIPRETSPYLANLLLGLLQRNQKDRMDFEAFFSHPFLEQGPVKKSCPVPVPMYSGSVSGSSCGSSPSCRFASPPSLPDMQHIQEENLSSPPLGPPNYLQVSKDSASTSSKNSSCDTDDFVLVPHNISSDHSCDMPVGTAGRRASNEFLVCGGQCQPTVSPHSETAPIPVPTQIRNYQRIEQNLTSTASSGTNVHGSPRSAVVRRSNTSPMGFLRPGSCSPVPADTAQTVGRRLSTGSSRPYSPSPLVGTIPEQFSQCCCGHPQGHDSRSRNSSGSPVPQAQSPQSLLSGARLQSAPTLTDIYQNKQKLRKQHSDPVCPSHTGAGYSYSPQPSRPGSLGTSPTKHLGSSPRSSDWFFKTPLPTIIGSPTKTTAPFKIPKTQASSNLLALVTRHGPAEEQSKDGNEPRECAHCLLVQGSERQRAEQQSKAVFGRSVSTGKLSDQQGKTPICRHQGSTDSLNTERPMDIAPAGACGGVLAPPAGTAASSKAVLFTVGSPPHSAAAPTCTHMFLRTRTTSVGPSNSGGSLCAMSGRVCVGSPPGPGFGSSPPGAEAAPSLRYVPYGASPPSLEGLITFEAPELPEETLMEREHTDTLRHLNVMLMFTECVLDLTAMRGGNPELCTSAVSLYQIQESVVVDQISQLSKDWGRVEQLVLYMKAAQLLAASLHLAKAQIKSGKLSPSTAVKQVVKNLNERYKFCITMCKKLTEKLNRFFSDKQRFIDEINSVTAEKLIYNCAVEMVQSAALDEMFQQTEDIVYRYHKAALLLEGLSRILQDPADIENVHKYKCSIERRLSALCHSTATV
# Procedure: as §1
# [3] = Pharmacokinetic study in rats; conditions: rat, plasma, po, 3 mg/kg
# Procedure: Pharmacokinetic parameters were calculated by statistical moment method using WinNonLin 8.0 software, mainly including Tmax, T1/2, Cmax and AUC0-24h.
# Animals: Three male SD rats weighing 200-220 g were used. After purchase, they were housed in the laboratory animal center for 2 days before experiment. […] Blood samples were collected at scheduled time points after oral gavage.
# Vehicle: 0.4% ethanol + 0.4% Tween 80 + 99.2% (0.5% methylcellulose M450). Preparation of oral gavage solution: The compound was accurately weighed and dissolved in vehicle by ultrasonication for 5 min at room temperature to prepare 0.3 mg/mL drug solution.
# Single compound administration was also used to study pharmacokinetics in rats.
# Blood sample collection: After oral gavage, blood samples were collected from orbital sinus at 0.25, 0.5, 1, 2, 4, 8, 10 and 24 h. 50 µL plasma was mixed with 200 µL acetonitrile (containing 2 ng/mL verapamil as internal standard). The mixture was vortexed for 3 min, then centrifuged at 20000 rcf for 10 min at 4 °C. The supernatant was analyzed by LC-MS/MS.
# Standard curves were established by accurately weighing and preparing compounds at different concentrations for mass spectrometric quantification. Compound concentrations in plasma samples were determined based on standard curves to obtain concentration-time profiles. All measurement data were collected and processed by relevant software. Pharmacokinetic parameters (including Tmax, T1/2, Cmax and AUC0-24h) were calculated by statistical moment method.
# [4] = target: FAK kinase (Homo sapiens, UniProt Q05397); test: FAK kinase activity inhibition assay, method A (HTRF); type: biochemical
# Chain of FAK kinase (Q05397 whole entry): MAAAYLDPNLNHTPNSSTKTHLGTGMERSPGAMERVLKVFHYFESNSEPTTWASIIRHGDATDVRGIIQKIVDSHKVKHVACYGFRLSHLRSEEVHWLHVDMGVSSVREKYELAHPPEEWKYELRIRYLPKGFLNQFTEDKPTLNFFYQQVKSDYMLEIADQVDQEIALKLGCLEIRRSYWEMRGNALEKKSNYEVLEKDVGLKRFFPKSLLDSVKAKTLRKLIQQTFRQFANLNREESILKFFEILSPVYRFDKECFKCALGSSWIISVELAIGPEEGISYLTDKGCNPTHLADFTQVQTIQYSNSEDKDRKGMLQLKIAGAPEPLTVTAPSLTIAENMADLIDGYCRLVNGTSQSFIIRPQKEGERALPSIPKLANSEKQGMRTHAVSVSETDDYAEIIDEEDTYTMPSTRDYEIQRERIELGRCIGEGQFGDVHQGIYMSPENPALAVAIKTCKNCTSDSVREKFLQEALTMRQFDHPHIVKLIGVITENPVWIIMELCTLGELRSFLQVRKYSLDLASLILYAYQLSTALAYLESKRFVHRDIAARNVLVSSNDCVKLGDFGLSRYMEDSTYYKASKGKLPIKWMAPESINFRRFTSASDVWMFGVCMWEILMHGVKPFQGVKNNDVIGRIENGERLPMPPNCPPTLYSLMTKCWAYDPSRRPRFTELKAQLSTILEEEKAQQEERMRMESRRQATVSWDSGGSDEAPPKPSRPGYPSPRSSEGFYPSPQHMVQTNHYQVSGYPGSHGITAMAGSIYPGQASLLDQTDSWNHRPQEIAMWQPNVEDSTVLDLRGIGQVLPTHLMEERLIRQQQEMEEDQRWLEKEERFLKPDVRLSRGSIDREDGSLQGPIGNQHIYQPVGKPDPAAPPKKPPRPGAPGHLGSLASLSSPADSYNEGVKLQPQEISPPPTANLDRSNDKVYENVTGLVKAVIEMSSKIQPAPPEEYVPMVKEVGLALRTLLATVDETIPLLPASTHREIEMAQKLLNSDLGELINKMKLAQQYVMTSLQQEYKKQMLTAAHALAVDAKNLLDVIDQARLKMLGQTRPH
# Procedure: The HTRF method was used to evaluate the inhibitory activity of the compounds against FAK kinase. […]. The reaction conditions were: FAK kinase at 0.1 ng/µL; ATP 10 µM; substrate concentration 1 µM. Compounds were serially diluted in DMSO and shaken on a shaker for 20 minutes. Prepare 2× kinase using 1× reaction buffer. Transfer 25 nL compound to a 384-well plate using Echo 655. Add 2.5 µL kinase per well. Seal the plate with sealing film, centrifuge at 1000 rpm for 60 seconds, and incubate at 25°C for 12 hours. Prepare 2× ATP/substrate mix using 1× enzyme reaction buffer and add 2.5 µL 2× ATP/substrate mix per well. Seal the plate with sealing film, centrifuge at 1000 rpm for 60 seconds, and incubate at 25°C for 50 minutes. Prepare 2×XL665 & antibody solution using HTRF detection buffer, and add 5 µL per well. Incubate at 25°C for 60 minutes. Read fluorescence at 620 nm (Cryptate) and 665 nm (XL665). Calculate the ratio per well (Ratio_665/620 nm). % Inhibition = 100% - [(Compound Ratio - Positive Control Ratio)/ (Negative Control Ratio - Positive Control Ratio)] × 100%. IC50 values (half-maximal inhibitory concentration) were calculated by nonlinear regression using GraphPad Prism 7.0. Y = Bottom + (Top - Bottom)/ (1 + 10^ ((LogIC50 - X) × Hill Slope)), where X is the log of compound concentration and Y is the % inhibition.
# [5] = Table 2, HTRF, ATP 10 µM, read-out: FAK (method A) (IC50)
# [6] = ADP-Glo, ATP 100 µM, read-out: ULK1 (IC50)
# [7] = ADP-Glo, ATP 6 µM, read-out: ULK2 (IC50)
Structure (SMILES),IC50 [1],IC50 [2],AUC(0-t) at 24 h [3],Cmax [3],Tmax [3],half-life [3],"IC50 [4, 5]","IC50 [1, 6]","IC50 [2, 7]",IC50 [4]
CCc1cc2c(cc1Nc1ncc(C(F)(F)F)c(NCCCN3CCOCCC3=O)n1)OC[C@H]1CN(C3CCOCC3)CCN21 [Compound A3R],< 3 nM,< 1 nM,1040 ng·h/mL,223 ng/mL,1.2 h,1.4 h,–,–,–,–
CCc1cc2c(cc1Nc1ncc(C(F)(F)F)c(NCCCN3CCCCC3=O)n1)OC[C@H]1CN(C3CCOCC3)CCN21 [Compound A7R],< 3 nM,< 1 nM,–,–,–,–,–,–,–,–
COc1cc2c(cc1Nc1ncc(C(F)(F)F)c(CCc3ccccc3CC(N)=O)n1)OC[C@H]1CN(C)CCN21 [Compound B1R],–,–,2330 ng·h/mL,387 ng/mL,2.7 h,2.9 h,< 0.5 nM,–,–,–
CCc1cc2c(cc1Nc1ncc(C(F)(F)F)c(NCCCN3CCOCCC3=O)n1)OC[C@H]1CN(C3CCN(C)CC3)CCN21 [Compound A2R],< 3 nM,< 5 nM,1940 ng·h/mL,149 ng/mL,8 h,8.8 h,–,–,–,–
CCc1cc2c(cc1Nc1ncc(C(F)(F)F)c(NCCCN3CCCCC3=O)n1)OC[C@H]1CN(C3CCN(C)CC3)CCN21 [Compound A6R],< 3 nM,< 5 nM,1080 ng·h/mL,77.3 ng/mL,6.7 h,8.3 h,–,–,–,–
CCc1cc2c(cc1Nc1ncc(C(F)(F)F)c(NCCCN3CCOCCC3=O)n1)OC[C@H]1CN(C)CCN21 [Compound A1R],–,–,326 ng·h/mL,74.2 ng/mL,1.2 h,1.5 h,–,< 3 nM,< 1 nM,–
CCc1cc2c(cc1Nc1ncc(C(F)(F)F)c(NCCCN3CCCCC3=O)n1)OC[C@H]1CN(C)CCN21 [Compound A8R],–,–,685 ng·h/mL,222 ng/mL,0.8 h,1 h,–,< 1 nM,< 1 nM,–
COc1cc2c(cc1Nc1ncc(C(F)(F)F)c(CCc3ccccc3CC(N)=O)n1)OC[C@H]1CN(C(C)=O)CCN21 [Compound B7R],–,–,1430 ng·h/mL,390 ng/mL,2 h,1.2 h,–,–,–,< 0.5 nM
CCc1cc2c(cc1Nc1ncc(C(F)(F)F)c(NCCCN3CCCCC3=O)n1)OC[C@H]1CNCCN21 [Compound A5R],–,–,–,–,–,–,–,< 1 nM,< 1 nM,–
COc1cc2c(cc1Nc1ncc(C(F)(F)F)c(CCc3ccccc3CC(N)=O)n1)OC[C@H]1CN(C3CN(C)C3)CCN21 [Compound B9R],–,–,368 ng·h/mL,61.8 ng/mL,3.3 h,2.6 h,–,–,–,< 0.5 nM
COc1cc2c(cc1Nc1ncc(C(F)(F)F)c(CCc3ccccc3CC(N)=O)n1)OC[C@H]1CNCCN21 [Compound B3R],–,–,690 ng·h/mL,68.9 ng/mL,3.3 h,7.9 h,< 0.5 nM,–,–,–
CCc1cc2c(cc1Nc1ncc(C(F)(F)F)c(NCCCN3CCOCCC3=O)n1)OC[C@H]1CNCCN21 [Compound A4R],–,–,880 ng·h/mL,217 ng/mL,1.2 h,2.1 h,–,< 1 nM,< 1 nM,–
COc1cc2c(cc1Nc1ncc(C(F)(F)F)c(CCc3ccccc3CC(N)=O)n1)OC[C@H]1CN(C3CCOCC3)CCN21 [Compound B4R],–,–,568 ng·h/mL,200 ng/mL,0.8 h,1.5 h,–,–,–,< 0.5 nM
